Where “and” joins values, the source holds several entries; their conditions need not be identical. Equal entries are not always repeated.
Target: T1, full length active recombinant SYK enzyme (Homo sapiens, UniProt P43405)
T1 construct: full length active recombinant SYK enzyme (Millipore, Calif.); purchased Millipore
Test: Inhibition of Syk tyrosine phosphorylation activity (LANCE TR-FRET kinase assay)
Format: biochemical

IC50 | SMILES
1 to 10 nM | CC[C@@H](Nc1ccc(C(N)=O)c(Nc2ccc3ncccc3c2)n1)C(N)=O [Example 205, (R)-6-(1-amino-1-oxobutan-2-ylamino)-2-(quinolin-6-ylamino)nicotinamide]
10 to 100 nM | CC[C@@H](Nc1ccc(C(N)=O)c(Nc2ccc3ncsc3c2)n1)C(N)=O [Example 206, (R)-6-(1-amino-1-oxobutan-2-ylamino)-2-(benzo[d]thiazol-6-ylamino)nicotinamide]
10 to 100 nM | CC[C@@H](Nc1ccc(C(N)=O)c(Nc2ccc3scnc3c2)n1)C(N)=O [Example 207, (R)-6-(1-amino-1-oxobutan-2-ylamino)-2-(benzo[d]thiazol-5-ylamino)nicotinamide]
10 to 100 nM | CC[C@@H](Nc1ccc(C(N)=O)c(Nc2ccc3c(ccn3C)c2)n1)C(N)=O [Example 208, (R)-6-(1-amino-1-oxobutan-2-ylamino)-2-(1-methyl-1H-indol-5-ylamino)nicotinamide]
10 to 100 nM | CC[C@@H](Nc1ccc(C(N)=O)c(Nc2cccc3c2ccn3C)n1)C(N)=O [Example 209, (R)-6-(1-amino-1-oxobutan-2-ylamino)-2-(1-methyl-1H-indol-4-ylamino)nicotinamide]
10 to 100 nM | CC[C@@H](Nc1ccc(C(N)=O)c(Nc2cc(C)ns2)n1)C(N)=O [Example 210]
10 to 100 nM | Cc1cc(Nc2nc(N[C@H](CC3CC3)C(N)=O)ccc2C(N)=O)sn1 [Example 211, (R)-6-(1-amino-3-cyclopropyl-1-oxopropan-2-ylamino)-2-(3-methylisothiazol-5-ylamino)nicotinamide]
1 to 10 nM | NC(=O)c1ccc(N[C@H](CC2CC2)C(N)=O)nc1Nc1cnc2ccccc2c1 [Example 212, (R)-6-(1-amino-3-cyclopropyl-1-oxopropan-2-ylamino)-2-(quinolin-3-ylamino)nicotinamide]
1 to 10 nM | NC(=O)c1ccc(N[C@H](CC2CC2)C(N)=O)nc1Nc1ccc2ncccc2c1 [Example 213, (R)-6-(1-amino-3-cyclopropyl-1-oxopropan-2-ylamino)-2-(quinolin-6-ylamino)nicotinamide]
10 to 100 nM | NC(=O)c1ccc(N[C@H](CC2CC2)C(N)=O)nc1Nc1ccc2cccnc2c1 [Example 214, (R)-6-(1-amino-3-cyclopropyl-1-oxopropan-2-ylamino)-2-(quinolin-7-ylamino)nicotinamide]
10 to 100 nM | Cc1cc(Nc2cc(N[C@@H](C(N)=O)C3CC3)c(F)cc2C(N)=O)sn1 [Example 215, (R)-4-(2-amino-1-cyclopropyl-2-oxoethylamino)-5-fluoro-2-(3-methylisothiazol-5-ylamino)benzamide]
10 to 100 nM | CC[C@@H](Nc1nc(Nc2cnc3ccccc3c2)c(C(N)=O)cc1F)C(N)=O [Example 227, (R)-6-(1-amino-1-oxobutan-2-ylamino)-5-fluoro-2-(quinolin-3-ylamino)nicotinamide]
10 to 100 nM | CC[C@@H](Nc1nc(Nc2cnc3ncccc3c2)c(C(N)=O)cc1F)C(N)=O [Example 228, (R)-6-(1-amino-1-oxobutan-2-ylamino)-5-fluoro-2-(1,8-naphthyridin-3-ylamino)nicotinamide]
10 to 100 nM | CC[C@@H](Nc1nc(Nc2ccc3nccn3c2)c(C(N)=O)cc1F)C(N)=O [Example 229, (R)-6-(1-amino-1-oxobutan-2-ylamino)-5-fluoro-2-(H-imidazo[1,2-a]pyridin-6-ylamino)nicotinamide]
100 to 1000 nM | CC[C@@H](Nc1nc(Nc2ccn3ccnc3c2)c(C(N)=O)cc1F)C(N)=O [Example 230, (R)-6-(1-amino-1-oxobutan-2-ylamino)-5-fluoro-2-(H-imidazo[1,2-a]pyridin-7-ylamino)nicotinamide]
10 to 100 nM | CC[C@@H](Nc1nc(Nc2cccc(OC)c2)c(C(N)=O)cc1F)C(N)=O [Example 231, (R)-6-(1-amino-1-oxobutan-2-ylamino)-5-fluoro-2-(3-methoxyphenylamino)nicotinamide]
100 to 1000 nM | CC[C@@H](Nc1nc(Nc2cncc(OC)c2)c(C(N)=O)cc1F)C(N)=O [Example 232, (R)-6-(1-amino-1-oxobutan-2-ylamino)-5-fluoro-2-(5-methoxypyridin-3-ylamino)nicotinamide]
1 to 10 nM | CC[C@@H](Nc1nc(Nc2ccc3ccccc3c2)c(C(N)=O)cc1F)C(N)=O [Example 233, (R)-6-(1-amino-1-oxobutan-2-ylamino)-5-fluoro-2-(naphthalen-2-ylamino)nicotinamide]
10 to 100 nM | CC[C@@H](Nc1nc(Nc2ccc3ncsc3c2)c(C(N)=O)cc1F)C(N)=O [Example 234, (R)-6-(1-amino-1-oxobutan-2-ylamino)-5-fluoro-2-(benzo[d]thiazol-6-ylamino)nicotinamide]
10 to 100 nM | CC[C@@H](Nc1nc(Nc2cncc(C)c2)c(C(N)=O)cc1F)C(N)=O [Example 235, (R)-6-(1-amino-1-oxobutan-2-ylamino)-5-fluoro-2-(5-methylpyridin-3-ylamino)nicotinamide]

IC50 | SMILES
100 to 1000 nM | CC[C@@H](Nc1nc(Nc2cnc3cccnc3c2)c(C(N)=O)cc1F)C(N)=O [Example 236, (R)-6-(1-amino-1-oxobutan-2-ylamino)-5-fluoro-2-(1,5-naphthyridin-3-ylamino)nicotinamide]
100 to 1000 nM | CC[C@@H](Nc1nc(Nc2ccc3c(c2)OCO3)c(C(N)=O)cc1F)C(N)=O [Example 237, (R)-6-(1-amino-1-oxobutan-2-ylamino)-5-fluoro-2-(benzo[d][1,3]dioxol-5-ylamino)nicotinamide]
10 to 100 nM | CC[C@@H](Nc1nc(Nc2cc(C)ns2)c(C(N)=O)cc1F)C(N)=O [Example 239, (R)-6-(1-amino-1-oxobutan-2-ylamino)-5-fluoro-2-(3-methylisothiazol-5-ylamino)nicotinamide]
100 to 1000 nM | CC[C@@H](Nc1nc(Nc2cccc3c2cnn3C)c(C(N)=O)cc1F)C(N)=O [Example 240, (R)-6-(1-amino-1-oxobutan-2-ylamino)-5-fluoro-2-(1-methyl-1H-indazol-4-ylamino)nicotinamide]
10 to 100 nM | CC[C@@H](Nc1nc(Nc2ccc3c(cnn3C)c2)c(C(N)=O)cc1F)C(N)=O [Example 241, (R)-6-(1-amino-1-oxobutan-2-ylamino)-5-fluoro-2-(1-methyl-1H-indazol-5-ylamino)nicotinamide]
10 to 100 nM | CC[C@@H](Nc1nc(Nc2ccnc3ccccc23)c(C(N)=O)cc1F)C(N)=O [Example 242, (R)-6-(1-amino-1-oxobutan-2-ylamino)-5-fluoro-2-(quinolin-4-ylamino)nicotinamide]
10 to 100 nM | CC[C@@H](Nc1nc(Nc2cccc3c2ccn3C)c(C(N)=O)cc1F)C(N)=O [Example 243, (R)-6-(1-amino-1-oxobutan-2-ylamino)-5-fluoro-2-(1-methyl-1H-indol-4-ylamino)nicotinamide]
100 to 1000 nM | CC[C@@H](Nc1nc(Nc2ccc3c(ccn3C)c2)c(C(N)=O)cc1F)C(N)=O [Example 244, (R)-6-(1-amino-1-oxobutan-2-ylamino)-5-fluoro-2-(1-methyl-1H-indol-5-ylamino)nicotinamide]
10 to 100 nM | CC[C@@H](Nc1nc(Nc2cccc3ncccc23)c(C(N)=O)cc1F)C(N)=O [Example 245, (R)-6-(1-amino-1-oxobutan-2-ylamino)-5-fluoro-2-(quinolin-5-ylamino)nicotinamide]
10 to 100 nM | CC(C)C[C@@H](Nc1nc(Nc2ccc3cccnc3c2)c(C(N)=O)cc1F)C(N)=O [Example 246, (R)-6-(1-amino-4-methyl-1-oxopentan-2-ylamino)-5-fluoro-2-(quinolin-7-ylamino)nicotinamide]
10 to 100 nM | CC(C)C[C@@H](Nc1nc(Nc2cnc3ccccc3c2)c(C(N)=O)cc1F)C(N)=O [Example 247, (R)-6-(1-amino-4-methyl-1-oxopentan-2-ylamino)-5-fluoro-2-(quinolin-3-ylamino)nicotinamide]
1 to 10 nM | CC(C)C[C@@H](Nc1nc(Nc2ccc3ncccc3c2)c(C(N)=O)cc1F)C(N)=O [Example 248, (R)-6-(1-amino-4-methyl-1-oxopentan-2-ylamino)-5-fluoro-2-(quinolin-6-ylamino)nicotinamide]
10 to 100 nM | CC(C)C[C@@H](Nc1nc(Nc2ccc3c(ccn3C)c2)c(C(N)=O)cc1F)C(N)=O [Example 249, (R)-6-(1-amino-4-methyl-1-oxopentan-2-ylamino)-5-fluoro-2-(1-methyl-1H-indol-5-ylamino)nicotinamide]
10 to 100 nM | NC(=O)c1cc(F)c(N[C@H](CC2CC2)C(N)=O)nc1Nc1ccc2cccnc2c1 [Example 250, (R)-6-(1-amino-3-cyclopropyl-1-oxopropan-2-ylamino)-5-fluoro-2-(quinolin-7-ylamino)nicotinamide]
1 to 10 nM | NC(=O)c1cc(F)c(N[C@H](CC2CC2)C(N)=O)nc1Nc1cnc2ccccc2c1 [Example 251, (R)-6-(1-amino-3-cyclopropyl-1-oxopropan-2-ylamino)-5-fluoro-2-(quinolin-3-ylamino)nicotinamide]
1 to 10 nM | NC(=O)c1cc(F)c(N[C@H](CC2CC2)C(N)=O)nc1Nc1ccc2ncccc2c1 [Example 252, (R)-6-(1-amino-3-cyclopropyl-1-oxopropan-2-ylamino)-5-fluoro-2-(quinolin-6-ylamino)nicotinamide]
10 to 100 nM | Cc1cc(Nc2nc(N[C@H](CC3CC3)C(N)=O)c(F)cc2C(N)=O)sn1 [Example 253, (R)-6-(1-amino-3-cyclopropyl-1-oxopropan-2-ylamino)-5-fluoro-2-(3-methylisothiazol-5-ylamino)nicotinamide]
1 to 10 nM | NC(=O)c1ccc(N[C@@H]2CCCC[C@@H]2N)nc1Nc1ccc2c(c1)OCCO2 [Example 254, 6-((1R,2S)-2-aminocyclohexylamino)-2-(2,3-dihydrobenzo[b][1,4]dioxin-6-ylamino)nicotinamide]
1 to 10 nM and 10 to 100 nM | NC(=O)c1ccc(N[C@@H]2CCCC[C@@H]2N)nc1Nc1ccc2c(c1)OCO2 [Example 255]
1 to 10 nM | Cc1cncc(Nc2nc(N[C@@H]3CCCC[C@@H]3N)ccc2C(N)=O)c1 [Example 256]

— patent US8846928B2 (Portola Pharmaceuticals, Inc., priority 2010, dated 2014)
